Experimental findings from patent publication US9556196B2, “Anti-platelet compound addition salt” (GUANGZHOU HEERSHI PHARMA DEVELOPMENT CO., LTD, priority 2011, dated 2017) are described below.

Each structure is given as a SMILES string. Where a name gives a salt, the structure may show the parent alone. Read-outs that look alike come from different tables or passages of the source.

Series [1] relates to wistar rat. Description: Current injury carotid artery thrombosis method (time of thrombosis formation). The note with it: oral gavage, consecutive 3 days, 2 hours after the last administration. Type of series: in vivo. The procedure:
To compare the pharmacologic effect between the screened salts and the free compound of formula I, the following arterial thrombosis test was carried out with clopidogrel as the positive drug.
I. Investigation on the Time of Thrombosis Formation,
(§1) Animal: wistar rat, 220-260 g in weight, male, 6-8 each group.
Grouping: control group, positive drug group (clopidogrel, 10 mg/kg), free compound of formula I, hydrochloride of the compound of formula I and L-camphor sulfonate of the compound of formula I (two dosages for each group, 3 and 9 mg/kg respectively based on the free compound of formula I).
Method: current injury carotid artery thrombosis method and platelet aggregation test.
Drug Administration: oral gavage.
Index observed: the drug was administrated for consecutive 3 days. 2 hours after the last administration, current injury carotid artery thrombosis method was carried out to observe the time of thrombosis formation. Femoral artery blood was sampled and separated to obtain the platelet. The effect on platelet aggregation was investigated with inducing agent ADP for each group, and at the same time, the bleeding time was determined.

Series [2] has as its system wistar rat. The series can be described thus: Arteriovenous shunt thrombosis in polyethylene tube method (weight of thrombosis). The settings on record: oral gavage, consecutive 3 days, 2 hours after the last administration, shunt lasted 15 min, wet or dry weight not stated. In kind it is in vivo. The procedure:
II. Investigation on the Weight of Thrombosis
as §1
Grouping: the same as above.
Method: Arteriovenous shunt thrombosis in polyethylene tube method.
Index Observed The drug was administrated for consecutive 3 days. 2 hours after the last administration, arteriovenous anastomosis thrombosis was lasted for 15 min, the wet weight and dry weight of the thrombosis formed was investigated.

Series [3] in a line: Solubility test for several solid acid addition salts. In kind it is physicochemical. The procedure:
The Solubility Test for Several Solid Acid Addition Salt
In general, it is necessary for a drug with good bioavailability to have a good solubility. Typically, the desired solubility of a drug in a pH range of 1-7.5 is at least 1 mg/ml.

Series [4] in a line: Accelerated stability test of the sulfonates formulated into tablets or capsules. The settings on record: tablets or capsules with excipients, 50° C.±2° C., relative humid of 75% ±5%, end of the third month, TLC, stable = no occurrence of impurity. In kind it is physicochemical. The protocol: A solid active ingredient with excellent stability is necessary for a solid formulation. To screen a suitable salt with chemical stability, the sulfonates prepared above was formulated into tablets or capsules with powdered excipients. The tablets included microcrystalline cellulose and anhydrous calcium dihydrogen phosphate with a ratio of 1:1. The capsules included Mannitol and Corn starch with a ratio of 4:1. And then, the tablets and the capsules were placed at the temperature of 50° C.±2° C. (incubator with constant temperature and humidity) with relative humid of 75% ±5% (saturated sodium chloride solution) for accelerated test. Sampling at the end of the third month, the tablets and the capsules were crushed and extracted with methanol:chloroform (1:1), and TLC was used to check the stability of the product and the salt was deemed as stable with no occurrence of impurity.

Series [5] in a line: Water solubility of the free compound (inventor's research). Type of series: physicochemical.
Series [6] in a line: Stability of the free compound in aqueous solution with weak acid or base. The settings on record: presence of weak acid or base in an aqueous solution for a period of time; produces degradation products. In kind it is physicochemical.
[7] abbreviates: 3 mg/kg based on the free compound of formula I.
Setting [8] is: 9 mg/kg based on the free compound of formula I.

Turning to `COC(=O)[C@H](c1ccccc1Cl)N1CCc2sccc2C1` [Clopidogrel, clopidogrel, reference compound], in series [1] (10 mg/kg), the Thrombosis formation time came out at 249.9 ± 58.0 s. This compound yielded a Weight of thrombosis in series [2] (10 mg/kg) of 3.2 ± 0.5 mg.

As a reminder, the Solubility is how much of the substance goes into solution per volume. For the compound `COC(=O)C(c1ccccc1Cl)N1CCc2sc(OC(=O)c3ccccc3OC(C)=O)cc2C1` (centres unmarked) [Benzenesulfonate], the Solubility in series [3] (read-out: Solubility) came to 2500 µg/mL.

With `COC(=O)C(c1ccccc1Cl)N1CCc2sc(OC(=O)c3ccccc3OC(C)=O)cc2C1` (centres unmarked) [P-toluenesulfonate], the Solubility in series [3] stood at 1200 µg/mL. The Stability result in series [4] is recorded as “Stable”.

Take `COC(=O)C(c1ccccc1Cl)N1CCc2sc(OC(=O)c3ccccc3OC(C)=O)cc2C1` (centres unmarked) [Methanesulfonate]: the Solubility in series [3] is 8200 µg/mL. Also, the Stability entry in series [4] was “Stable”.

On to `COC(=O)C(c1ccccc1Cl)N1CCc2sc(OC(=O)c3ccccc3OC(C)=O)cc2C1` (centres unmarked) [Free Base, methyl 2-(2-chlorophenyl)-2-(2-acetyl-salicylic acyloxy-4,5,6,7-tetrahydro-thieno[3,2-C]pyridine)-5-acetate], for which the Thrombosis formation time is on record as 165 ± 22.4 s in series [1] (setting [7]) and 261 ± 54.3#,& s in series [1] (setting [8]). For the same compound, the results for the Weight of thrombosis in series [2] (setting [7]) and in series [2] (setting [8]) were 4.0 ± 0.6 mg and 3.0 ± 0.5#,& mg, respectively. Also, in series [5], the “Water solubility (in words)” value is “almost insoluable in water”. Also, the “Stability (in words)” value in series [6] was “not stable enough”.

Take `COC(=O)C(c1ccccc1Cl)N1CCc2sc(OC(=O)c3ccccc3OC(C)=O)cc2C1` (centres unmarked) [Hydrobromide]: the Solubility in series [3] was found to be 500 µg/mL.

For `COC(=O)C(c1ccccc1Cl)N1CCc2sc(OC(=O)c3ccccc3OC(C)=O)cc2C1` (centres unmarked) [Hydrochloride], the Solubility in series [3] was determined as 20 µg/mL. Moreover, the Thrombosis formation time was 210.4 ± 51.1 s in series [1] (setting [7]) and 319.6 ± 35.2#,H,&,Y s in series [1] (setting [8]). Moreover, the Weight of thrombosis in series [2] (setting [7]) was 3.2 ± 0.7#,Y mg; in series [2] (setting [8]) it was 2.8 ± 0.5 mg.

`COC(=O)C(c1ccccc1Cl)N1CCc2sc(OC(=O)c3ccccc3OC(C)=O)cc2C1` [L-camphor sulfonate]: the Solubility in series [3] was 4700 µg/mL. Further, the Stability entry in series [4] is listed as “Stable”; in series [4] (listed as camphor sulfonate), “the most stable one”. Moreover, the Thrombosis formation time is reported as 250.4 ± 35.2 ,Y,* s in series [1] (setting [7]) and 360.2 ± 55.9#,H,&,Y,* s in series [1] (setting [8]). In addition, the values for the Weight of thrombosis in series [2] (setting [7]) and in series [2] (setting [8]) were 3.0 ± 0.7#,Y mg and 2.5 ± 0.4 H,&,Y mg, respectively.
